Laboratory results as given in ChEMBL document CHEMBL1201862, “PubChem BioAssay data set” (2004).
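Cells were grown in 96-well plates and exposed to each compound for 48 hours at five concentrations; endpoints were interpolated linearly between bracketing concentrations, or set to the highest concentration if not reached. GI50 = concentration required for 50% inhibition of growth.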 Calls of active or inactive are those of the source. Cut-off read from the data, not from the text of the source: active = GI50 up to about 1.1 µM and inactive = higher.

How the values were obtained:
Assay in all cases: inhibition of tumour cell growth, NCI panel, 48 h
U-251 = system: U-251
ACHN = system: ACHN
NCI-H23 = system: NCI-H23
786-0 = system: 786-0
A549 = system: A549
HOP-92 = system: HOP-92
SF-295 = system: SF-295
UO-31 = system: UO-31
SF-539 = system: SF-539
HT-29 = system: HT-29
SW-620 = system: SW-620
HCT-15 = system: HCT-15
DMS-273 = system: DMS-273
HOP-18 = system: HOP-18
HCC 2998 = system: HCC 2998
CAKI-1 = system: CAKI-1
EKVX = system: EKVX
OVCAR-3 = system: OVCAR-3
NCI-H460 = system: NCI-H460
DMS-114 = system: DMS-114
SK-MEL-28 = system: SK-MEL-28
NCI-H522 = system: NCI-H522
HCT-116 = system: HCT-116
RPMI-8226 = system: RPMI-8226
K562 = system: K562
OVCAR-5 = system: OVCAR-5
KM-20L2 = system: KM-20L2
MOLT-4 = system: MOLT-4
CCRF-CEM = system: CCRF-CEM
SF-268 = system: SF-268
DLD-1 = system: DLD-1
RXF 631 = system: RXF 631
OVCAR-4 = system: OVCAR-4
SK-MEL-5 = system: SK-MEL-5
HL-60 = system: HL-60
SNB-78 = system: SNB-78
KM12 = system: KM12
M14 = system: M14
UACC-257 = system: UACC-257
XF498 = system: XF498
COLO 205 = system: COLO 205
TK-10 = system: TK-10
LXFL 529 = system: LXFL 529
OVCAR-8 = system: OVCAR-8
LOX IMVI = system: LOX IMVI
SK-OV-3 = system: SK-OV-3
UACC-62 = system: UACC-62
Malme-3M = system: Malme-3M
HOP-62 = system: HOP-62
IGROV-1 = system: IGROV-1
M19-MEL = system: M19-MEL
A498 = system: A498
SNB-19 = system: SNB-19
SNB-75 = system: SNB-75
SN12C = system: SN12C
SK-MEL-2 = system: SK-MEL-2
RXF 393 = system: RXF 393
SR = system: SR
MDA-N = system: MDA-N
NCI-H226 = system: NCI-H226
MDA-MB-231 = system: MDA-MB-231
Hs-578T = system: Hs-578T
T47D = system: T47D
MCF7 = system: MCF7
PC-3 = system: PC-3
MDA-MB-435 = system: MDA-MB-435
NCI/ADR-RES = system: NCI/ADR-RES

FC(F)(F)c1nc(-c2ccccc2)oc1Sc1nnc(Sc2oc(-c3ccccc3)nc2C(F)(F)F)s1
GI50 (U-251): > 42.5 µM (inactive)
GI50 (ACHN): > 82.2 µM (inactive)
GI50 (NCI-H23): 24.2 µM (inactive)
GI50 (786-0): 28.4 µM (inactive)
GI50 (A549): > 100 µM (inactive)
GI50 (HOP-92): 29.4 µM (inactive)
GI50 (SF-295): > 67.1 µM (inactive)
GI50 (UO-31): > 100 µM (inactive)
GI50 (SF-539): > 69.8 µM (inactive)
GI50 (HT-29): > 100 µM (inactive)
GI50 (SW-620): > 60.3 µM (inactive)
GI50 (HCT-15): 25.3 µM
GI50 (DMS-273): 46.8 µM (inactive)
GI50 (HOP-18): > 100 µM (inactive)
GI50 (HCC 2998): > 78.2 µM (inactive)
GI50 (CAKI-1): 30.1 µM (inactive)
GI50 (EKVX): > 47.2 µM (inactive)
GI50 (OVCAR-3): > 43.4 µM (inactive)
GI50 (NCI-H460): > 100 µM (inactive)
GI50 (DMS-114): 6.15 µM (inactive)
GI50 (SK-MEL-28): > 55.3 µM (inactive)
GI50 (NCI-H522): 18.5 µM (inactive)
GI50 (HCT-116): > 65.3 µM (inactive)
GI50 (RPMI-8226): 30.5 µM (inactive)
GI50 (K562): 24 µM (inactive)
GI50 (OVCAR-5): > 100 µM (inactive)
GI50 (KM-20L2): > 100 µM (inactive)
GI50 (MOLT-4): 6.84 µM (inactive)
GI50 (CCRF-CEM): 8.97 µM (inactive)
GI50 (SF-268): 58.9 µM (inactive)
GI50 (DLD-1): 36.4 µM (inactive)
GI50 (RXF 631): 36.9 µM (inactive)
GI50 (OVCAR-4): 14.7 µM (inactive)
GI50 (SK-MEL-5): 14.4 µM (inactive)
GI50 (HL-60): 14.2 µM (inactive)
GI50 (SNB-78): 34.1 µM (inactive)
GI50 (KM12): > 100 µM (inactive)
GI50 (M14): 14.2 µM (inactive)
GI50 (UACC-257): > 69.7 µM (inactive)
GI50 (XF498): 9.06 µM (inactive)
GI50 (COLO 205): 41.1 µM (inactive)
GI50 (TK-10): > 55.8 µM (inactive)
GI50 (LXFL 529): 27.8 µM (inactive)
GI50 (OVCAR-8): 22.7 µM (inactive)
GI50 (LOX IMVI): 10.4 µM (inactive)
GI50 (SK-OV-3): > 100 µM (inactive)
GI50 (UACC-62): 35.2 µM (inactive)
GI50 (Malme-3M): 18.1 µM (inactive)
GI50 (HOP-62): > 100 µM (inactive)
GI50 (IGROV-1): 24.2 µM (inactive)
GI50 (M19-MEL): 23.2 µM (inactive)
GI50 (A498): 98.6 µM (inactive)
GI50 (SNB-19): > 63.5 µM (inactive)
GI50 (SNB-75): 37.8 µM (inactive)
GI50 (SN12C): 39.4 µM (inactive)
GI50 (SK-MEL-2): 86.7 µM (inactive)
GI50 (RXF 393): 21.1 µM (inactive)
GI50 (SR): 18.5 µM (inactive)

CN(C)C(=S)/N=c1\ssc(=S)n1Cc1cccnc1
GI50 (U-251): 3.38 µM (inactive)
GI50 (ACHN): 6.76 µM (inactive)
GI50 (NCI-H23): 2.64 µM (inactive)
GI50 (MDA-N): 0.324 µM (active)
GI50 (786-0): 4.07 µM (inactive)
GI50 (A549): 4.93 µM (inactive)
GI50 (NCI-H226): > 55.6 µM (inactive)
GI50 (HOP-92): 3.81 µM (inactive)
GI50 (SF-295): 1.81 µM (inactive)
GI50 (UO-31): 13.1 µM (inactive)
GI50 (SF-539): 4.02 µM (inactive)
GI50 (HT-29): 1.66 µM (inactive)
GI50 (SW-620): 1.26 µM (inactive)
GI50 (HCT-15): 1.23 µM
GI50 (DMS-273): 1.09 µM (active)
GI50 (MDA-MB-231): 6.07 µM (inactive)
GI50 (HOP-18): > 100 µM (inactive)
GI50 (HCC 2998): 2.54 µM (inactive)
GI50 (CAKI-1): 3.16 µM (inactive)
GI50 (EKVX): > 88.9 µM (inactive)
GI50 (OVCAR-3): 1.65 µM (inactive)
GI50 (NCI-H460): 2.81 µM (inactive)
GI50 (DMS-114): 0.783 µM (active)
GI50 (SK-MEL-28): 9.4 µM (inactive)
GI50 (NCI-H522): 0.531 µM (active)
GI50 (HCT-116): 3.2 µM (inactive)
GI50 (RPMI-8226): 3.47 µM (inactive)
GI50 (K562): 1.12 µM (active)
GI50 (OVCAR-5): 35.9 µM (inactive)
GI50 (KM-20L2): 2.06 µM (inactive)
GI50 (MOLT-4): 6.46 µM (inactive)
GI50 (CCRF-CEM): 8.53 µM (inactive)
GI50 (SF-268): 15.2 µM (inactive)
GI50 (DLD-1): 3.95 µM (inactive)
GI50 (RXF 631): 4.39 µM (inactive)
GI50 (OVCAR-4): 19.3 µM (inactive)
GI50 (SK-MEL-5): 1.67 µM (inactive)
GI50 (HL-60): 1.76 µM (inactive)
GI50 (SNB-78): > 100 µM (inactive)
GI50 (KM12): 1 µM (active)
GI50 (M14): 2.37 µM (inactive)
GI50 (UACC-257): 4.23 µM (inactive)
GI50 (XF498): 3.15 µM (inactive)
GI50 (COLO 205): 2.2 µM (inactive)
GI50 (TK-10): 14.2 µM (inactive)
GI50 (Hs-578T): 1.86 µM (inactive)
GI50 (LXFL 529): 6.15 µM (inactive)
GI50 (OVCAR-8): 3.66 µM (inactive)
GI50 (T47D): > 100 µM (inactive)
GI50 (LOX IMVI): 4.27 µM (inactive)
GI50 (MCF7): 2.91 µM (inactive)
GI50 (SK-OV-3): 4.36 µM (inactive)
GI50 (UACC-62): 2.17 µM (inactive)
GI50 (PC-3): 1.67 µM (inactive)
GI50 (Malme-3M): 2.16 µM (inactive)
GI50 (HOP-62): 4.91 µM (inactive)
GI50 (IGROV-1): 7.18 µM (inactive)
GI50 (M19-MEL): 1.51 µM (inactive)
GI50 (MDA-MB-435): 0.277 µM (active)
GI50 (A498): 10.1 µM (inactive)
GI50 (SNB-19): 5.15 µM (inactive)
GI50 (SNB-75): 1.91 µM (inactive)
GI50 (SN12C): 5.18 µM (inactive)
GI50 (SK-MEL-2): 2.29 µM (inactive)
GI50 (NCI/ADR-RES): 1.01 µM (active)
GI50 (RXF 393): 1.47 µM (inactive)
GI50 (SR): 0.638 µM (active)
